Assay results: patent publication US20240215577A1, “FUNGICIDAL PYRIDONES” (FMC Corporation, priority 2021, published 2024)

Legend:
Format in all cases: in vivo
Details in all cases: 100 = 100% disease control, 0 = no control
Botrytis cinerea = assay: Test E: tomato Botrytis, preventive spray on tomato seedlings
From the text: (§1) General protocol for preparing test suspensions for Tests A-F: the test compounds were first dissolved in acetone in an amount equal to 3% of the final volume and then suspended at the desired concentration (in ppm) in acetone and purified water (50/50 mix by volume) containing 250 ppm of the surfactant PEG400 (polyhydric alcohol esters). The resulting test suspensions were then used in Tests A-F.
(§2) The test suspension was sprayed to the point of run-off on tomato seedlings. The following day the seedlings were inoculated with a spore suspension of Botrytis cinerea (the causal agent of tomato Botrytis) and incubated in a saturated atmosphere at 20° C. for 48 h, and then moved to a growth chamber at 24° C. for 3 days, after which time visual disease ratings were made.
(§3) A rating of 100 indicates 100% disease control and a rating of 0 indicates no disease control (relative to the controls). A dash (-) indicates the compound was not tested.

[1] = tested on: Puccinia recondita f. sp. tritici; assay: Test B: wheat leaf rust, preventive spray on wheat seedlings
From the text: as §1
(§4) The test solution was sprayed to the point of run-off on wheat seedlings. The following day the seedlings were inoculated with a spore suspension of Puccinia recondita f. sp. tritici (the causal agent of wheat leaf rust) and incubated in a saturated atmosphere at 20° C. for 24 h, and then moved to a growth chamber at 20° C. for 7 days, after which time visual disease ratings were made.
as §3

Alternaria solani = assay: Test F: tomato early blight, preventive spray on tomato seedlings
From the text: as §1
as §2, with “Alternaria solani” for “Botrytis cinerea”, “early blight)” for “Botrytis)”, “27°” for “20°”, “20°” for “24°”
as §3

[2] = tested on: Blumeria graminis f. sp. tritici; assay: Test C: wheat powdery mildew, preventive spray on wheat seedlings
From the text: as §1
The test suspension was sprayed to the point of run-off on wheat seedlings. The following day the seedlings were inoculated with a spore dust of Blumeria graminis f. sp. tritici, (also known as Eysiphe graminis f. sp. tritici, the causal agent of wheat powdery mildew) and incubated in a growth chamber at 20° C. for 8 days, after which time visual disease ratings were made.
as §3

Zymoseptoria tritici = assay: Test A: wheat leaf blotch, preventive spray on wheat seedlings
From the text: as §1
The test solution was sprayed to the point of run-off on wheat seedlings. The following day the seedlings were inoculated with a spore suspension of Zymoseptoria tritici (the causal agent of wheat leaf blotch) and incubated in a saturated atmosphere at 24° C. for 48 h, and then moved to a growth chamber at 20° C. for 17 days, after which time disease ratings were made.
as §3

Phakopsora pachyrhizi = assay: Test D: Asian soybean rust, preventive spray on soybean seedlings
From the text: as §1
as §4, with “soybean” for “wheat”, “Phakopsora pachyrhizi” for “Puccinia recondita f. sp. tritici”, “Asian soybean” for “wheat leaf”, “22°” for “20°”, “h” for “h,”, “8” for “7”
as §3

Compound | Test E disease control rating (Botrytis cinerea; 50 ppm) | Test B disease control rating ([1]; 50 ppm) | Test F disease control rating (Alternaria solani; 50 ppm) | Test C disease control rating ([2]; 50 ppm) | Test A disease control rating (Zymoseptoria tritici; 50 ppm) | Test D disease control rating (Phakopsora pachyrhizi; 50 ppm) | also measured
Cn1cc(-c2cc(F)ccc2F)c(-c2ccc(F)cc2Cl)c(Cl)c1=O [Compound 24] | 85% | 96% | 0% | 0% | 96% | 0% | –
Cn1cc(-c2ccc(F)cc2F)c(-c2ccc(F)cc2F)c(Cl)c1=O [Compound 41] | 91% | 96% | 91% | 96% | 100% | 69% | –
Cn1cc(-c2cc(F)ccc2Cl)c(-c2ccc(F)cc2Cl)cc1=O [Compound 34] | 98% | 68% | 0% | 48% | 100% | 59% | –
Cn1cc(-c2ccc(F)cc2)c(-c2c(F)cccc2F)c(Cl)c1=O [Compound 17] | 98% | 99% | 100% | 0% | 100% | 75% | –
Cc1cc(F)ncc1-c1cn(C)c(=O)c(Cl)c1-c1ccc(F)cc1Cl [Compound 60] | 97% | 95% | 40% | 73% | 99% | 65% | –
CCOn1cc(-c2cc(OC)cc(OC)c2)c(-c2ccc(F)cc2Cl)c(Cl)c1=O [Compound 45] | – | – | – | – | – | – | Test E disease control rating (Botrytis cinerea; 250 ppm): 97%; Test B disease control rating ([1]; 250 ppm): 91%; Test F disease control rating (Alternaria solani; 250 ppm): 0%; Test C disease control rating ([2]; 250 ppm): 72%; Test A disease control rating (Zymoseptoria tritici; 250 ppm): 100%; Test D disease control rating (Phakopsora pachyrhizi; 250 ppm): 0%
COc1cccc(-c2c(-c3ccc(F)cc3Cl)c(C#N)c(=O)n(C)c2C)c1 [Compound 6] | – | – | – | – | – | – | Test E disease control rating (Botrytis cinerea; 250 ppm): 0%; Test B disease control rating ([1]; 250 ppm): 0%; Test F disease control rating (Alternaria solani; 250 ppm): 0%; Test C disease control rating ([2]; 250 ppm): 89%; Test A disease control rating (Zymoseptoria tritici; 250 ppm): 0%; Test D disease control rating (Phakopsora pachyrhizi; 250 ppm): 0%
Cn1cc(-c2cc(F)c(F)cc2F)c(-c2ccc(F)cc2Cl)c(Cl)c1=O [Compound 26] | 83% | 86% | 0% | 0% | 99% | 0% | –
Cn1cc(-c2ccc(F)cc2Cl)c(-c2ccc(F)cc2F)c(Cl)c1=O [Compound 42] | 94% | 99% | 93% | 93% | 100% | 73% | –
COc1ccc(Cl)c(-c2cn(C)c(=O)cc2-c2ccc(F)cc2Cl)c1 [Compound 31] | 99% | 96% | 0% | 0% | 96% | 0% | –
COc1cc(OC)cc(-c2cn(C)c(=O)c(Cl)c2-c2ccc(F)cc2Cl)c1 [Compound 3, 3-chloro-4-(2-chloro-4-fluorophenyl)-5-(3,5-dimethoxyphenyl)-1-methyl-2(11)-pyridinone] | 100% | 100% | 100% | 0% | 99% | 65% | –
CCCn1cc(-c2cc(OC)ccc2Cl)c(-c2ccc(F)cc2Cl)c(Cl)c1=O [Compound 76] | 96% | 55% | 0% | 0% | 63% | 0% | –
COc1ccc(Cl)c(-c2cn(C)c(=O)c(Cl)c2-c2ccccc2F)c1 [Compound 61] | 98% | 100% | 100% | 89% | 100% | 94% | –
COc1ccc(Cl)c(-c2cn(C)c(=O)c(Cl)c2-c2ccccc2Br)c1 [Compound 67] | 91% | – | 33% | 56% | 99% | 73% | –
COc1ccc(Cl)c(-c2cn(C)c(=O)cc2-c2ccccc2Br)c1 [Compound 62] | 98% | 74% | 0% | 0% | 37% | 0% | –
COc1cc(OC)cc(-c2cn(C)c(=O)cc2-c2ccc(F)cc2Cl)c1 [Compound 53, 4-(2-chloro-4-fluorophenyl)-5-(3,5-dimethoxyphenyl)-1-methyl-2(1H)-pyridinone] | – | – | – | – | – | – | pest or weed control at 250 ppm (Botrytis cinerea; Botrytis cinerea, 250 ppm, read-out: Test E disease control rating): 99%; pest or weed control at 250 ppm ([1]; Puccinia recondita, 250 ppm, read-out: Test B disease control rating): 97%; pest or weed control at 250 ppm (Alternaria solani; Alternaria solani, 250 ppm, read-out: Test F disease control rating): 0%; pest or weed control at 250 ppm ([2]; Blumeria graminis, 250 ppm, read-out: Test C disease control rating): 56%; pest or weed control at 250 ppm (Zymoseptoria tritici; Zymoseptoria tritici, 250 ppm, read-out: Test A disease control rating): 100%; pest or weed control at 250 ppm (Phakopsora pachyrhizi; Phakopsora pachyrhizi, 216 h, 250 ppm, read-out: Test D disease control rating): 59%
CCn1cc(-c2cc(OC)ccc2Cl)c(-c2ccc(F)cc2Cl)c(Cl)c1=O [Compound 75] | 98% | 97% | 0% | 0% | 97% | 0% | –
COc1ccc(-c2c(-c3cc(OC)ccc3Cl)cn(C)c(=O)c2Cl)c(Cl)c1 [Compound 69] | 98% | 100% | 100% | 99% | 100% | 79% | –
CCOc1ccc(Cl)c(-c2cn(C)c(=O)c(Cl)c2-c2ccc(F)cc2F)c1 [Compound 52] | 99% | 100% | 99% | 91% | 100% | 81% | –
Cn1cc(-c2cccc([N+](=O)[O-])c2)c(-c2ccc(F)cc2Cl)c(Cl)c1=O [Compound 66] | 79% | 80% | 0% | 0% | 42% | 0% | –
CCCOc1ccc(Cl)c(-c2cn(C)c(=O)c(Cl)c2-c2ccc(F)cc2F)c1 [Compound 10] | 94% | 99% | 0% | 79% | 99% | 0% | –
COc1cc(OC)c(Cl)c(-c2cn(OCC#N)c(=O)c(Cl)c2-c2ccc(F)cc2Cl)c1 [Compound 35] | 94% | 100% | 0% | 73% | 84% | 92% | –
COc1ccc(F)c(-c2cn(C)c(=O)c(Cl)c2-c2ccc(F)cc2Cl)c1 [Compound 28] | 98% | 100% | 99% | 97% | 100% | 87% | –
